Reference: US20090123501A1, “INHIBITION OF THE SH2-DOMAIN CONTAINING PROTEIN TYR-PHOSPHATASE, SHP-1, TO ENHANCE VACCINES” (Baylor College of Medicine, priority 2007, published 2009)
Blank lines part the entries; values can stand above or below the molecule they belong to.

Experiments:
TRAMP C2 tumors = experiment: DC vaccination of mice bearing ectopic TRAMP C2 tumors; format: in vivo, C57BL/6 mice; conditions: for TRAMP C2 tumor growth (growth curves, mean tumor volumes): by peptide loaded on DC vaccine, single i.p. vaccination 2×10^6 DCs, vs untreated mice; for TRAMP C2 tumor growth rate (mean tumor volume at day 48 post-vaccination, ANOVA): by peptide, pooled across viral treatments, vs no vaccination
Description: BMDCs were prepared as described above, transduced with either Ad5-SHP-1-shRNA or the control Ad5-scrambled-shRNA at 40,000 viral particles/cell, and pulsed with one of the six peptides listed in Table 1 (OVA, an irrelevant epitope to TRAMP 2 tumors, served as a negative control peptide) or a lysate of TRAMP C2 cells as a positive control antigen. 6-8 week C57BL/6 mice, bearing TRAMP C2 tumors (7×10^6 cells injected s.c. on the dorsal flank three days prior to vaccination), were given a single i.p. vaccination with 2×10^6 treated DCs or left untreated. Tumors were measured (length and width using calipers) every 2-4 days until termination of the study and tumor volume was estimated using the formula: Tumor volume (mm3)=x^2y×0.5236, where x is the smaller tumor dimension, and y is the larger tumor dimension. A-G) TRAMP tumor growth curves for vaccines loaded with the indicated peptides. Error bars represent the standard error of the mean of 5 mice vaccinated in each treatment. […] H-I) ANOVA analysis of peptide function and SHP-1 function. Data represent the averages 10 mice per peptide treatment and 5 mice in the no treatment control group for H) and 35 mice per viral transduction treatment and 5 mice in the no treatment control group for I). The green diamonds represent the mean and 95% confidence interval for each group from the ANOVA. The black line is the mean of means for the study and red symbols indicate significant differences (p<0.05 by Tukey-Kramer HSD multiple comparisons test).
To determine if there was a significant difference between the various peptides used in these DC vaccinations, mice were pooled across viral treatments (Ad5-SHP-1 shRNA or Ad5-scrambled-shRNA) employing the same peptide. An ANOVA for differences in mean tumor volume at day 48 post-vaccination (the time at which the majority of the vaccinated tumor growth curves change slope) and Tukey-Kramer HSD multiple comparisons test.
Next experiments were conducted to determine if vaccines transduced with Ad5-SHP-1-shRNA inhibited tumor growth compared to transduction with Ad5-scrambled-shRNA or no vaccine treatment, irrespective of what peptide was used in the vaccine.

H-2D^b [1] = molecular target: T1, H-2D^b (Mus musculus, UniProt P01899); experiment: MHC class I surface stabilization assay on RMA-S cells, H-2Db; format: binding; conditions: RMA-S cells pulsed with peptide overnight, flow cytometry
T1 construct: lower relative expression of H-2D^b on RMA-S cells compared to H-2K^b; endogenous in cells; host or cells: RMA-S
T1 sequence (P01899 25-362): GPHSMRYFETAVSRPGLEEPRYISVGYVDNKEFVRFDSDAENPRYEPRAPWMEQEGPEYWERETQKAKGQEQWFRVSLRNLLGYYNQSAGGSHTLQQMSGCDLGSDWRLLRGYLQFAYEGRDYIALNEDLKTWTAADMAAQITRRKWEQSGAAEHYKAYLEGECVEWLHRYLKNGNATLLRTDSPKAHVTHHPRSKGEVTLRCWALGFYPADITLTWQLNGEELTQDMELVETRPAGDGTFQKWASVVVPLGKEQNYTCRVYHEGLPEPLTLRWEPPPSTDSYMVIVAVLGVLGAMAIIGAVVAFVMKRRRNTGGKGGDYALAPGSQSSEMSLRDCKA
T1 sequence (P01887 21-119 partner): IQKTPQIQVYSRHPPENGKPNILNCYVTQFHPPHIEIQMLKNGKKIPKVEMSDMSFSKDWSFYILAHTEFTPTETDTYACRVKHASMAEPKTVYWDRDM
Description: (§1) 10^6 RMA-S cells were incubated overnight at 37° C. with each of the five predicted at the concentrations indicated. Cells were stained with antibodies for H-2K^b (Y-3; ATCC-HB176) or H-2D^b (28-14-8S; ATCC-HB27) followed by a goat anti-mouse-FITC second step and MHC class I surface expression was analyzed by flow cytometry. Specific MFI is the mean fluorescent intensity of the sample-mean fluorescent intensity of goat anti-mouse-FITC second step alone. Error bars represent the standard deviation of triplicate measurements.
(§2) The binding affinity of the five predicted peptides was tested. In a surface stabilization assay using the TAP1 deficient cell line RMA-S. RMA-S cells were pulsed with peptide, at the indicated concentrations, and incubated overnight. Cells were stained with antibodies for H-2K^b (Y-3; ATCC-HB176) or H-2D^b (28-14-8S; ATCC-HB27) followed by a fluorescent-labeled secondary antibody and MHC class I surface expression was analyzed by flow cytometry.

AP-1 signaling = experiment: AP-1-dependent secreted alkaline phosphatase reporter in RAW cells; format: cell-based, murine; conditions: transient transfection, IFNγ or LPS stimulation
Description: Function of the mutant and wt SHP-1 constructs was tested in RAW cells by transient transfection of SHP-1 vectors along with a reporter construct expressing a secreted alkaline phosphatase driven by either an NFκB or AP-1 dependent promoter. NFκB and AP-1 are major transcription factors stimulated by toll-like receptor (TLR) and cytokine signaling in immune system cells, and represent likely pathways of SHP-1 inhibition on cellular activation. Cells were transfected with the appropriate construct, reporter and then stimulated with interferon-γ (IFNγ) or bacterial lipopolysaccharide (LPS) as ligands for cytokine and TLR receptors respectively.

total splenocytes = experiment: T cell subsets in total splenocytes 7 days after DC vaccination, flow cytometry; format: in vivo, C57BL/6 mice; conditions: by peptide, viral treatments pooled, day 7, vs no treatment control
Description: To determine the effect of SHP-1 inhibition on the initiation of T cell responses, BMDCs were cultured and CD11c^+ MACS purified as described above. […] Following peptide loading DCs were left untreated or transduced with one of 3 different adenoviral vectors: 1) Ad5-SHP-1-shRNA; 2) Ad5-scrambled-shRNA; or 3) Ad5-CMV-empty, an adenovirus carrying a CMV promoter expression vector but no insert. […] Using all combinations of peptide and virus treatment yielded 9 experimental vaccines and one no vaccine control. Vaccines (2×10^6 DCs) were injected i.p. into wt C57BL/6 mice. Seven days following vaccination mice were sacrificed and total splenocytes were analyzed by multi-color flow cytometry for the expression of several T cell subsets. CD3^+ CD8^+IFNγ^+ cells were characterized as CTL effectors, CD3^+ CD4^+IFNγ^+ cells were characterized as Th1 helper T cells, and CD4^+ FOXP3^+ cells were characterized as Treg cells. Flow cytometry data were analyzed by one-way analysis of variance (ANOVA) and Tukey-Kramer HSD multiple comparisons test for percentage of cells falling within each population following treatment. Cells were stained with anti-CD3, anti-CD8 and anti IFNγ to differentiate CD8^+ effectors and CD4^+ Th1 T cell skewing or anti-CD4 and anti-FOXP3 to determine Tregs. To determine if there was a peptide specific effects between the 3 different tumor antigens, viral treatments were pooled for each peptide exposure. Data represent the averages 6 mice per peptide treatment group and 2 mice in the no treatment control group. No significant differences were seen between peptides in the induction of Tregs or CD8^+ effector cells.
(§3) Following peptide loading DCs were left untreated or transduced with one of 3 different adenoviral vectors: 1) Ad5-SHP-1-shRNA; 2) Ad5-scrambled-shRNA; or 3) Ad5-CMV-empty, an adenovirus carrying a CMV promoter expression vector but no insert. Vaccines were injected i.p. into wt C57BL/6 mice and T cell skewing analyzed 7 days later by flow cytometry from total splenocytes. Cells were stained with anti-CD3, anti-CD8 and anti IFNγ for effector and Th1 cells or anti-CD4 and anti-FOXP3 for Tregs. For the peptide specific analysis viral treatments were pooled for each peptide exposure. Data represent the averages 6 mice per peptide treatment and two mice in the no treatment control group. The green diamonds represent the mean and 95% confidence interval for each group from the ANOVA. The black line is the mean of means for the study and red asterisk (*) indicates significant differences (p<0.05 by Tukey-Kramer HSD multiple comparisons test).
as §3, with “the SHP-1” for “the peptide”, “each viral treatment.” for “each peptide exposure.”, “and 2” for “and two”, “ANOVA. […]” for “ANOVA. The black line is the mean of means for the study and red asterisk (*) indicates significant differences (p<0.05 by Tukey-Kramer HSD multiple comparisons test).”

H-2K^b = molecular target: T2, H-2K^b (mouse, UniProt P01887 21-119; P01901 22-305, limits assumed); experiment: RMA-S surface stabilization assay, flow cytometry with antibody Y-3
T2 construct: whole, on cells;extracellular; MHC class I on RMA-S cells, detected with antibody Y-3 (ATCC-HB176) in a surface stabilization assay; also called MHC class 1 molecule H-2K^b
T2 sequence (MHC heavy, looked up): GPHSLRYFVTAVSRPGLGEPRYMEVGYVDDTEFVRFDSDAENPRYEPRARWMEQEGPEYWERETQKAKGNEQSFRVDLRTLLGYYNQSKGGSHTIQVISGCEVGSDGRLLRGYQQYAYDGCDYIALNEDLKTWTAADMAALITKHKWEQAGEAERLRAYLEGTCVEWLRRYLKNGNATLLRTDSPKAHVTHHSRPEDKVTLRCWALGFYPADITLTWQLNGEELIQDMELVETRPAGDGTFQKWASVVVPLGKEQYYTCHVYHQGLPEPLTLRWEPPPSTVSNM
T2 sequence (b2m, looked up): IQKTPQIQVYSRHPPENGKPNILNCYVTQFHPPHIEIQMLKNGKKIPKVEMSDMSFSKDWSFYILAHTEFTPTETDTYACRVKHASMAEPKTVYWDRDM
Description: as §1, with “10⁶” for “10^6”, “measurements. This is representative of 3 separate studies.” for “measurements.”
as §2, with “cytometry. […] STEAP₈₄₋₉₁ and STEAP₁₈₆₋₁₉₂ bound with an affinity near that of OVA₂₅₈₋₂₆₅, a well characterized strong binding H-2K^b epitope from chicken ovalbumin. […]” for “cytometry.”

H-2D^b [2] = molecular target: T3, H-2D^b (mouse, UniProt P01887 21-119; P01899 25-309); experiment: RMA-S surface stabilization assay, flow cytometry with antibody 28-14-8S
T3 construct: whole, on cells;extracellular; MHC class I on RMA-S cells, detected with antibody 28-14-8S (ATCC-HB27) in a surface stabilization assay; also called MHC class 1 molecule H-2D^b
T3 sequence (MHC heavy, looked up): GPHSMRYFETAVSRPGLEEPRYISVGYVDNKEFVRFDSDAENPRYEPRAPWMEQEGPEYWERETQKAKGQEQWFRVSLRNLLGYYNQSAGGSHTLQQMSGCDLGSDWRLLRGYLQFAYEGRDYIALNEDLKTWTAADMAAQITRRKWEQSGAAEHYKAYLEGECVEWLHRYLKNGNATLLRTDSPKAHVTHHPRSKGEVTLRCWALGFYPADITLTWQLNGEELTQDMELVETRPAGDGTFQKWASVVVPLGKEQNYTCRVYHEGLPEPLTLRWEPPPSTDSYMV
T3 sequence (b2m, looked up): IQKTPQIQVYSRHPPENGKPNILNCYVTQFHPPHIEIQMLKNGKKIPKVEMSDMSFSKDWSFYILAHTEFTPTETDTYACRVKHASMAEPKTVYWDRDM
Description: as §1, with “10⁶” for “10^6”, “measurements. This is representative of 3 separate studies.” for “measurements.”
as §2, with “cytometry. […] STEAP₈₄₋₉₁ and STEAP₁₈₆₋₁₉₂ bound with an affinity near that of OVA₂₅₈₋₂₆₅, a well characterized strong binding H-2K^b epitope from chicken ovalbumin. […]” for “cytometry.”

Molecule: SIINFEKL [OVA258-265, reference compound]
TRAMP C2 tumor growth (growth curves, mean tumor volumes) (TRAMP C2 tumors): equivalent to mice receiving no vaccine treatment

Molecule: AQMNNRDCL [PSCA29-37]
TRAMP C2 tumor growth (growth curves, mean tumor volumes) (TRAMP C2 tumors): strong inhibition of tumor growth
TRAMP C2 tumor growth rate (mean tumor volume at day 48 post-vaccination, ANOVA) (TRAMP C2 tumors): significant decrease in tumor growth rate
relative binding affinity to H-2Db (MHC class I surface expression) (H-2D^b [1]): did not appear to bind as well as some of the other peptides

Molecule: ca-SHP-1: constitutively active SHP-1 mutant with N-terminal SH2 domain deleted, HA-tagged (SEQ ID NO:9)
AP-1 signaling (AP-1 signaling): suppressing AP-1 signaling

Molecule: SVYDFFVWL [Trp-2, reference compound]
Th1 skewing (total splenocytes): significant

Molecule: VSKINRTEM [STEAP327-335]
Th1 skewing (total splenocytes): significant
TRAMP C2 tumor growth (growth curves, mean tumor volumes) (TRAMP C2 tumors): strong inhibition of tumor growth
TRAMP C2 tumor growth rate (mean tumor volume at day 48 post-vaccination, ANOVA) (TRAMP C2 tumors): significant decrease in tumor growth rate
relative binding affinity to H-2Db (MHC class I surface expression) (H-2D^b [1]): did not appear to bind as well as some of the other peptides

Molecule: LLLGTVHAL [STEAP262-270]
relative binding affinity to H-2Db (MHC class I surface expression) (H-2D^b [1]): no detectable binding at any peptide concentration

binding result (H-2K^b): binds
B1: STEAP186-192 (peptide)
peptide: RSYRYKLL

binding result (H-2K^b): binds
B2: STEAP84-91 (peptide)
peptide: LTFLYTLL

binding result (H-2D^b [2]): binds
B3: STEAP327-335 (peptide)
peptide: VSKINRTEM

binding result (H-2D^b [2]): binds
B4: PSCA29-37 (peptide)
peptide: AQMNNRDCL
